What is called EC50 is the concentration needed to bring the measured effect to its halfway point. As a reminder, the Cmax is the peak of the concentration-time curve. As usually defined, the Tmax is the time from dosing to the highest level.

The test system of data set [1] is human colon cancer cell HCT-116. Description: Human tumor xenograft model in nude mice. Type of data set: in vivo, nude mice (nu/nu). Conditions: HCT-116 xenograft, 30 mg/kg oral, 5 times a week for 3 weeks, end point 4 weeks; low = active. An excerpt: (7) Drug administration of human tumor xenograft model and nude mice tumor transplantation model: (see Harrison S D Jr; Growth of human tumor cells in athymic mice; J Natl Cancer Inst. 1991 Oct. 16; 83 (20): 1509).
T cell deficiency nude mice (nu/nu) (male, 6-week old) are bought from Charles River Lab, and are raised in pathogen-free environment according to guidelines of animal raising and using committee of university. The number of […] LNCaP, NCI-H23, HCT-116, G-361 and U-251 cells are suspended in 0.2 ml HBSS or matrigel (50: 50, v/v), and are subcutaneously vaccinated to the side abdomen region of the mice. When the average diameters of the tumors are 7˜8 mm, the mice having tumor size of 100˜200 mm3 are chosen, and are given with treatment group of compound zhangnan-5 prepared with corn oil and are only given with control group of empty carrier (corn oil), respectively.
In the oral feeding test, the compound zhangnan-5 (30 mg/kg) is dissolved in corn oil. Each day the mice are tube fed with 200 μl drug liquid in single dose (prepared with corn oil, containing 0.75 mg compound zhangnan-5) for 5 times a week and for 3 weeks. The control group is given placebo (corn oil) according to same method. The mice are raised separately, and are allowed to self-help feeding.
The tumor is measured in two vertical directions every 3˜4 days.

Another data set deals with human tumor cell strains. Kind of data set: MTT cytotoxicity, human tumor cell strains (summary statement). Type of data set: cell-based. Particulars: some (unnamed) human tumor cell strains, 72 hours, read-out: EC50 of some tumor cells. An excerpt:
We use human tumor cell lines to conduct cytotoxicity analysis. Thirty-one (31) kinds of human tumor cell strains are cultivated in the normal culture medium containing various compounds of zhangnan-5, zhangnan-7 and zhangnan-8. The human tumor lines are bought from ATCC and NCI, and is cultivated with DMEM culture solution containing 10% FBS in 370C couveuse containing 5% CO2. The merged cells are digested by trypsinase, and are counted after washed by the culture solution. 3000˜6000 cells are added into each hole of the 96-hole culture plate, and are hatched for 16 hours or 24 hours. Then, compounds zhangnan-5, zhangnan-7 and zhangnan-8 with different concentrations are added into the holes. Upon further cultivated for another 72 hours, MTT tests are conducted to cells in group treated with drugs and the control group cells, to determine the survival condition of the cells.

Data set [2] can be described thus: Acute toxicity of zhangnan-5 to mice upon feeding. In kind it is in vivo, BlebC mice. An excerpt:
(6) Research on the acute toxicity of compound zhangnan-5 to mice upon feeding the drug: (see Gol'dberg L E, Stepanova E S, Vertogradova T P, Shevniuk L A, Shepelevtseva G. Preclinical toxicological study of the new antibiotic eremomycin. Its acute toxicity for laboratory animals, Antibiot Med Biotekhnol. 1987, 32 (12): 910-5).
Two groups of 8-week old BlebC mice are taken, and each group has 10 mice (five male and five female). The mice are fed with the compound zhangnan-5 (prepared with corn oil or carrier) in single dose 500 mg/kg and in multi-dose 200 mg/kg (QDX15), respectively. Then, observation is made to the mice for 1 week and 4 week, respectively. The mice are weighted every other day. When the test is over, the tested mice are killed for pathological analysis. […] Thus, the compound zhangnan-5 has great potential to be developed as a new antineoplastic drug of wide spectrum. The compound zhangnan-5 can be used as drug substance of anti-tumor drugs, preferably used as drug substance of anti-malignant solid tumor drugs. The compound zhangnan-5 can also be used with drug carrier and/or excipient to make anti-tumor drug. The drug carrier and/or excipient can be, for example, corn oil, sodium carboxymethylcellulose, and the like.

Data set [3] can be described thus: Pharmacokinetics of zhangnan-5 in mice. Particulars: both sexes, BlebC, mouse, oral, 100 mg/kg single dose, plasma, average +/− standard deviation. Type of data set: in vivo. As to the method: (5) Pharmacokinetics research of the compound zhangnan-5 in mice body: (see Singh S S, Shah H, Gupta S, Jain M, Sharma K, Thakkar P, Shah R. Liquid chromatography—electrospray ionisation mass spectrometry method for the determination of escitalopram in human plasma and its application in bioequivalence study. J Chromatogr B Analyt Technol Biomed Life Sci. 2004 Nov. 25; 811 (2):209-15).
Four 8-week old BlebC mice (two male and two female) are used, feeding with the compound zhangnan-5 of 100 mg/kg for single dose. At 0.5, 1, 3, 6, 12, 24, 48, and 72 hours upon mouth feeding the drug, blood is collected via vena ophthalmica and blood plasma is made, to determine the plasma concentration of the given compound zhangnan-5.

As for `C=C(C)C1CCC2(C(=O)O)CCC3(C)C(CCC4C5(C)CCC(=O)C(C)(CO)C5CCC43C)C12` (centres unmarked) [zhangnan-5], the “TGI (T/C×100 of relative tumor volume)” value in data set [1] worked out at 6.9%. Moreover, the EC50 in the data set on human tumor cell strains was under 100 nM. The “toxicity, multi-dose” value in data set [2] (fed, multi-dose 200 mg/kg (QDX15), observed 4 week) was “no toxicity is observed”. Further, the acute toxicity result in data set [2] (fed, single dose 500 mg/kg, observed 1 week) is recorded as “no toxicity is observed”. In addition, in data set [2] (single dose 500 mg/kg and multi-dose 200 mg/kg (QDX15)), the mortality entry is given as “no single death”. In data set [3], the Cmax stood at 65 µM and the time to peak (Tmax) is 1.42 h. The half-life in data set [3] (read-out: T½ (converted)) is 11.5 h.

Values taken from US20120302530A1, “23-HYDROXY-BETULINIC ACID DERIVATIVES, PREPARATION METHODS AND USES THEREOF” (priority 2009, published 2012).
